Reference: ChEMBL document CHEMBL4038347, “Converting Teixobactin into a Cationic Antimicrobial Peptide (AMP)” (2017)
Values after ≈ are worked out from the molar mass of the structure shown. Active and inactive are the calls of the source. The rule behind the calls is not given here. Where a SMILES comes first, the peptide text is derived from it. Bridges are numbered along the chain shown (N, C = ends). [ ]: non-standard residue; d: D form. d(aIle) = CC[C@H](C)[C@@H](N)C(=O)O; dNMeF = CN[C@H](Cc1ccccc1)C(=O)O

Key:
Assay type in all cases: functional
[1] = test system: Staphylococcus aureus; assay: Antibacterial activity against Staphylococcus aureus ATCC 29213 after 24 hrs by broth microdilution method
[2] = test system: Bacillus subtilis; assay: Antibacterial activity against Bacillus subtilis ATCC 6051 after 24 hrs by broth microdilution method
[3] = test system: Escherichia coli; assay: Antibacterial activity against Escherichia coli ATCC 25922 after 24 hrs by broth microdilution method
[4] = test system: Pseudomonas aeruginosa; assay: Antibacterial activity against Pseudomonas aeruginosa ATCC 27853 after 24 hrs by broth microdilution method

| SMILES | MIC ([1]; ATCC 29213, 24 h) | MIC ([2]; ATCC 6051, 24 h) | MIC ([3]; ATCC 25922, 24 h) | MIC ([4]; ATCC 27853, 24 h) | MIC [1] | MIC [3] | MIC [4] | MIC [2] |
| --- | --- | --- | --- | --- | --- | --- | --- | --- |
| CC[C@H](C)[C@H](NC(=O)[C@@H](Cc1ccccc1)NC)C(=O)N[C@@H](CCCCN)C(=O)N[C@H](CCCCN)C(=O)N[C@@H](C(=O)N[C@H](C(=O)N[C@@H](CO)C(=O)N[C@H]1C(=O)N[C@@H](CCCCN)C(=O)N[C@@H](CCCCN)C(=O)N[C@@H]([C@@H](C)CC)C(=O)O[C@H]1C)[C@@H](C)CC)[C@@H](C)CC | 32 µg/mL (≈ 24.3 µM) | 8 µg/mL (≈ 6.08 µM) | 32 µg/mL (≈ 24.3 µM) | 64 µg/mL (≈ 48.7 µM) | – | – | – | – |
| CC[C@H](C)[C@H](NC(=O)[C@@H](Cc1ccccc1)NC)C(=O)N[C@@H](CCCCN)C(=O)N[C@H](CCC(N)=O)C(=O)N[C@@H](C(=O)N[C@H](C(=O)N[C@@H](CCCCN)C(=O)N[C@H]1C(=O)N[C@@H](C)C(=O)N[C@@H](CCCN)C(=O)N[C@@H]([C@@H](C)CC)C(=O)O[C@H]1C)[C@@H](C)CC)[C@@H](C)CC (stereo in doubt) | – | 32 µg/mL (≈ 24.9 µM) | – | – | inactive | inactive | inactive | – |
| CC[C@H](C)[C@H](NC(=O)[C@@H](Cc1ccccc1)NC)C(=O)N[C@@H](CO)C(=O)N[C@H](CCCCN)C(=O)N[C@@H](C(=O)N[C@H](C(=O)N[C@@H](CCCCN)C(=O)N[C@H]1C(=O)N[C@@H](CCCCN)C(=O)N[C@@H](CCCCN)C(=O)N[C@@H]([C@@H](C)CC)C(=O)O[C@H]1C)[C@@H](C)CC)[C@@H](C)CC (H-[dNMeF]IS[dK][d(aIle)]IK[dT]KKI; ester 8-C) | 256 µg/mL (≈ 195 µM) | 4 µg/mL (≈ 3.04 µM) | 32 µg/mL (≈ 24.3 µM) | 64 µg/mL (≈ 48.7 µM) | – | – | – | – |
| CC[C@H](C)[C@H](NC(=O)[C@@H](Cc1ccccc1)NC)C(=O)N[C@@H](CN)C(=O)N[C@H](CN)C(=O)N[C@@H](C(=O)N[C@H](C(=O)N[C@@H](CO)C(=O)N[C@H]1C(=O)N[C@@H](CN)C(=O)N[C@@H](CCCCN)C(=O)N[C@@H]([C@@H](C)CC)C(=O)O[C@H]1C)[C@@H](C)CC)[C@@H](C)CC | 16 µg/mL (≈ 13.5 µM) | 4 µg/mL (≈ 3.37 µM) | 64 µg/mL (≈ 53.9 µM) | 32 µg/mL (≈ 26.9 µM) | – | – | – | – |
| CC[C@H](C)[C@H](NC(=O)[C@@H](CCCCN)NC)C(=O)N[C@@H](CO)C(=O)N[C@H](CCC(N)=O)C(=O)N[C@@H](C(=O)N[C@H](C(=O)N[C@@H](CO)C(=O)N[C@H]1C(=O)N[C@@H](C)C(=O)N[C@@H](CCCNC(=N)N)C(=O)N[C@@H]([C@@H](C)CC)C(=O)O[C@H]1C)[C@@H](C)CC)[C@@H](C)CC | – | – | – | – | inactive | inactive | inactive | inactive |
| CC[C@H](C)[C@H](NC(=O)[C@@H](Cc1ccccc1)NC)C(=O)N[C@@H](CCCCN)C(=O)N[C@H](CCC(N)=O)C(=O)N[C@@H](C(=O)N[C@H](C(=O)N[C@@H](CCCCN)C(=O)N[C@H]1C(=O)N[C@@H](CCCCN)C(=O)N[C@@H](CCCCN)C(=O)N[C@@H]([C@@H](C)CC)C(=O)O[C@H]1C)[C@@H](C)CC)[C@@H](C)CC | 256 µg/mL (≈ 189 µM) | 8 µg/mL (≈ 5.9 µM) | 128 µg/mL (≈ 94.4 µM) | 256 µg/mL (≈ 189 µM) | – | – | – | – |
| CC[C@H](C)[C@H](NC(=O)[C@@H](Cc1ccccc1)NC)C(=O)N[C@@H](CCCCN)C(=O)N[C@H](CCCCN)C(=O)N[C@@H](C(=O)N[C@H](C(=O)N[C@@H](CO)C(=O)N[C@H]1C(=O)N[C@@H](C)C(=O)N[C@@H](CCCNC(=N)N)C(=O)N[C@@H]([C@@H](C)CC)C(=O)O[C@H]1C)[C@@H](C)CC)[C@@H](C)CC | 32 µg/mL (≈ 24.9 µM) | 4 µg/mL (≈ 3.11 µM) | 64 µg/mL (≈ 49.8 µM) | 64 µg/mL (≈ 49.8 µM) | – | – | – | – |
| CC[C@H](C)[C@H](NC(=O)[C@@H](Cc1ccccc1)NC)C(=O)N[C@@H](CO)C(=O)N[C@H](CCC(N)=O)C(=O)N[C@@H](C(=O)N[C@H](C(=O)N[C@@H](CO)C(=O)N[C@H]1C(=O)N[C@@H](C)C(=O)N[C@@H](CC/N=C(\N(C)C)N2CCOCC2)C(=O)N[C@@H]([C@@H](C)CC)C(=O)O[C@H]1C)[C@@H](C)CC)[C@@H](C)CC | 64 µg/mL (≈ 48.2 µM) | 4 µg/mL (≈ 3.01 µM) | – | – | – | inactive | inactive | – |
